Reference: ChEMBL document CHEMBL1201862, “PubChem BioAssay data set” (2004)
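How tested: cells in 96-well plates exposed to compound for 48 hours at five concentrations. Abbreviation: GI50, concentration required for 50% inhibition of growth.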 Active and inactive are the calls of the source. Cut-off read from the data, not from the text of the source: active = GI50 up to about 1.1 µM and inactive = higher.

Assays:
Experiment in all cases: DTP human tumour cell line panel, 48 h
PC-3 = system: PC-3
OVCAR-8 = system: OVCAR-8
OVCAR-3 = system: OVCAR-3
SK-MEL-2 = system: SK-MEL-2
Malme-3M = system: Malme-3M
SK-MEL-5 = system: SK-MEL-5
BT-549 = system: BT-549
SF-295 = system: SF-295
COLO 205 = system: COLO 205
SK-MEL-28 = system: SK-MEL-28
DU-145 = system: DU-145
T47D = system: T47D
ACHN = system: ACHN
MCF7 = system: MCF7
HOP-62 = system: HOP-62

| SMILES | GI50 (PC-3) | GI50 (OVCAR-8) | GI50 (OVCAR-3) | GI50 (SK-MEL-2) | GI50 (Malme-3M) | GI50 (SK-MEL-5) | GI50 (BT-549) | GI50 (SF-295) | GI50 (COLO 205) | GI50 (SK-MEL-28) | GI50 (DU-145) | GI50 (T47D) | GI50 (ACHN) | GI50 (MCF7) | GI50 (HOP-62) |
| --- | --- | --- | --- | --- | --- | --- | --- | --- | --- | --- | --- | --- | --- | --- | --- |
| O=C1c2cccc3cccc(c23)C(=O)N1O | 76.2 µM (inactive) | 56.6 µM (inactive) | 57.4 µM (inactive) | 86.5 µM (inactive) | > 100 µM (inactive) | > 100 µM (inactive) | > 100 µM (inactive) | 34.2 µM (inactive) | > 100 µM (inactive) | > 100 µM (inactive) | 53.6 µM (inactive) | > 100 µM (inactive) | 71.8 µM (inactive) | 37.5 µM (inactive) | – |
| Nc1nc(Cl)cc(NCC2(CO)CC(c3ccccc3)C2)n1 (stereo not given) | 18 µM (inactive) | 34.7 µM (inactive) | > 100 µM (inactive) | 62.4 µM (inactive) | 46.5 µM (inactive) | 9.12 µM (inactive) | 29.3 µM (inactive) | > 100 µM (inactive) | 29.1 µM (inactive) | 53.3 µM (inactive) | > 100 µM (inactive) | 11.4 µM (inactive) | 16.1 µM (inactive) | 22.9 µM (inactive) | > 100 µM (inactive) |
| CC(C)C1(O)C(=O)N(c2c(F)c(F)c(F)c(F)c2F)C(=S)N1CCSc1ccccc1 (stereo not given) | 15.7 µM (inactive) | 19 µM (inactive) | 16.4 µM (inactive) | 17.7 µM (inactive) | 17.3 µM (inactive) | 17.4 µM (inactive) | 16.1 µM (inactive) | 17.3 µM (inactive) | 17.9 µM (inactive) | 16.5 µM (inactive) | 17.1 µM (inactive) | 16.2 µM (inactive) | 17.5 µM (inactive) | 17.2 µM (inactive) | 18.5 µM (inactive) |
| O=C1c2ccccc2C(=O)c2c1sc1nc3ccccc3n21 | 2.64 µM (inactive) | 1.9 µM (inactive) | 2.86 µM (inactive) | – | 0.439 µM (active) | 16.5 µM (inactive) | 1.98 µM (inactive) | 1.66 µM (inactive) | 1.8 µM (inactive) | – | 1.75 µM (inactive) | 1.83 µM (inactive) | 2.23 µM (inactive) | 1.86 µM (inactive) | – |
| Cc1ccc(/C=C2\Cc3c(C)cc(C)cc3C2=O)c(C(=O)O)c1 | 41.9 µM (inactive) | 51.8 µM (inactive) | 31 µM (inactive) | 24.4 µM (inactive) | 72.3 µM (inactive) | 25.8 µM (inactive) | 28.6 µM (inactive) | 41.9 µM (inactive) | 34.8 µM (inactive) | 56.2 µM (inactive) | 51.5 µM (inactive) | 82.2 µM (inactive) | 59.6 µM (inactive) | 56.2 µM (inactive) | 83.4 µM (inactive) |
| CCOC(=O)/C=C(\C(=O)OCC)n1ccc(=O)n(Cc2cnnn2CCCCOC(C)=O)c1=O | 9.4 µM (inactive) | 5.08 µM (inactive) | 5.3 µM (inactive) | 14.7 µM (inactive) | 2.06 µM (inactive) | 13.5 µM (inactive) | 16.4 µM (inactive) | 27.4 µM (inactive) | 1.3 µM (inactive) | 6 µM (inactive) | 18.6 µM (inactive) | 4.07 µM (inactive) | 1.83 µM (inactive) | 4.79 µM (inactive) | 19.7 µM (inactive) |
| O=C(CCC(=O)OCC1OC(O)(CC2OC(CO)C(O)C(O)C2O)C(O)C1O)OCc1ccccc1 (stereo not given) | > 100 µM (inactive) | > 100 µM (inactive) | > 100 µM (inactive) | > 100 µM (inactive) | > 100 µM (inactive) | > 100 µM (inactive) | > 100 µM (inactive) | > 100 µM (inactive) | > 100 µM (inactive) | > 100 µM (inactive) | > 100 µM (inactive) | > 100 µM (inactive) | > 100 µM (inactive) | > 100 µM (inactive) | > 100 µM (inactive) |
| OCC1=C[C@@](COCc2ccccc2)(OCc2ccccc2)[C@@H](OCc2ccccc2)[C@@H]1OCc1ccccc1 | 15.1 µM (inactive) | 36.2 µM (inactive) | 11.7 µM (inactive) | 12.7 µM (inactive) | 18 µM (inactive) | 15.7 µM (inactive) | 24.7 µM (inactive) | 13.2 µM (inactive) | 11.6 µM (inactive) | 35.3 µM (inactive) | 37.6 µM (inactive) | 19.3 µM (inactive) | 22.9 µM (inactive) | 3.76 µM (inactive) | 24.2 µM (inactive) |
| COC(=O)[C@]1(C)CCCn2c(=O)n(-c3ccccc3)c(=O)n21 | > 100 µM (inactive) | > 100 µM (inactive) | > 100 µM (inactive) | > 100 µM (inactive) | – | > 100 µM (inactive) | > 100 µM (inactive) | > 100 µM (inactive) | > 100 µM (inactive) | > 100 µM (inactive) | > 100 µM (inactive) | > 100 µM (inactive) | > 100 µM (inactive) | > 100 µM (inactive) | > 100 µM (inactive) |
| CC(C)(C)OC(=O)NC(Cc1ccccc1)C(=O)N[C@H]1c2ccsc2/C(=N/O)[C@H]1O (stereo not given in full) | > 100 µM (inactive) | > 100 µM (inactive) | > 100 µM (inactive) | > 100 µM (inactive) | > 100 µM (inactive) | > 100 µM (inactive) | > 100 µM (inactive) | > 100 µM (inactive) | > 100 µM (inactive) | – | > 100 µM (inactive) | > 100 µM (inactive) | – | > 100 µM (inactive) | > 100 µM (inactive) |
| CC(C)C(=O)Nc1cc(C(F)(F)F)ccc1[N+](=O)[O-] | > 100 µM (inactive) | > 100 µM (inactive) | > 100 µM (inactive) | > 100 µM (inactive) | 68.5 µM (inactive) | > 100 µM (inactive) | > 100 µM (inactive) | > 100 µM (inactive) | > 100 µM (inactive) | > 100 µM (inactive) | > 100 µM (inactive) | 81.5 µM (inactive) | > 100 µM (inactive) | > 100 µM (inactive) | > 100 µM (inactive) |
| O=C1OC(=O)c2c1cc1cc3c(cc1c2-c1ccc2c(c1)OCO2)OCO3 | > 100 µM (inactive) | > 100 µM (inactive) | > 100 µM (inactive) | > 100 µM (inactive) | > 100 µM (inactive) | > 100 µM (inactive) | > 100 µM (inactive) | > 100 µM (inactive) | > 100 µM (inactive) | > 100 µM (inactive) | > 100 µM (inactive) | > 100 µM (inactive) | > 100 µM (inactive) | > 100 µM (inactive) | – |
| COC(=O)c1cc2c3c(cc(N(C)C)c2[nH]1)N(C(=O)c1cc2cc(OC)c(OC)c(OC)c2[nH]1)CC3CCl (stereo not given) | 0.00366 µM (active) | – | 0.00396 µM (active) | 0.00762 µM (active) | 0.00463 µM (active) | 0.00333 µM (active) | 0.018 µM (active) | 0.00379 µM (active) | 0.00557 µM (active) | 0.00641 µM (active) | < 0.0025 µM (active) | < 0.0025 µM (active) | < 0.0025 µM (active) | < 0.0025 µM (active) | 0.00262 µM (active) |
| O=C1O/C(=C\c2ccc(O)cc2)C(c2ccc(O)c(Cl)c2)=C1Br | 6.47 µM (inactive) | 17.6 µM (inactive) | 7 µM (inactive) | 14 µM (inactive) | 15.3 µM (inactive) | 12.7 µM (inactive) | 6.35 µM (inactive) | 14.5 µM (inactive) | 19.3 µM (inactive) | 13.4 µM (inactive) | 12.9 µM (inactive) | 17.7 µM (inactive) | 13.2 µM (inactive) | 16.7 µM (inactive) | 14.2 µM (inactive) |
| CC(C)(C)OC(=O)NC(CSSCC(NC(=O)OC(C)(C)C)C(=O)O)C(=O)O (stereo not given) | > 100 µM (inactive) | > 100 µM (inactive) | > 100 µM (inactive) | > 100 µM (inactive) | > 100 µM (inactive) | > 100 µM (inactive) | > 100 µM (inactive) | > 100 µM (inactive) | > 100 µM (inactive) | > 100 µM (inactive) | > 100 µM (inactive) | > 100 µM (inactive) | > 100 µM (inactive) | > 100 µM (inactive) | > 100 µM (inactive) |
| Cc1cc(C)c(S(=O)(=O)N(CCCCCCN)OCCCN)c(C)c1 | 14.6 µM (inactive) | 14 µM (inactive) | 19.9 µM (inactive) | 20.2 µM (inactive) | 10.3 µM (inactive) | 19.2 µM (inactive) | 17.8 µM (inactive) | 18.5 µM (inactive) | 17.3 µM (inactive) | 18.1 µM (inactive) | 16.1 µM (inactive) | 17.7 µM (inactive) | 17.2 µM (inactive) | 19.8 µM (inactive) | 20.9 µM (inactive) |
| N#CC(=S)Nc1ccc(F)cc1 | 57.7 µM (inactive) | 96.2 µM (inactive) | 56.4 µM (inactive) | > 100 µM (inactive) | 50.2 µM (inactive) | 17 µM (inactive) | 32.6 µM (inactive) | 51.6 µM (inactive) | 22.4 µM (inactive) | 45.5 µM (inactive) | 86.7 µM (inactive) | 24 µM (inactive) | 60 µM (inactive) | 64.7 µM (inactive) | > 100 µM (inactive) |
| S=C(N/N=C/c1ccccn1)N1CCCCCC1 | < 0.01 µM (active) | < 0.01 µM (active) | < 0.01 µM (active) | 0.0659 µM (active) | < 0.0392 µM (active) | < 0.0141 µM (active) | < 0.01 µM (active) | 0.124 µM (active) | < 0.01 µM (active) | 0.215 µM (active) | 0.115 µM (active) | < 0.01 µM (active) | < 0.01 µM (active) | < 0.01 µM (active) | < 0.01 µM (active) |
| CC1CCC2C(C(=O)O[C@H]3C4CCO[C@@H](OC5OC(CO)C(O)C(O)C5O)C4[C@@]4(CO)O[C@@H]34)=CO[C@@H](OC3OC(CO)C(O)C(O)C3O)C12 (stereo not given in full) | > 10 µM (inactive) | > 10 µM (inactive) | > 10 µM (inactive) | > 10 µM (inactive) | > 10 µM (inactive) | > 10 µM (inactive) | > 10 µM (inactive) | > 10 µM (inactive) | – | > 10 µM (inactive) | > 10 µM (inactive) | > 10 µM (inactive) | > 10 µM (inactive) | > 10 µM (inactive) | > 10 µM (inactive) |
